From patent US20250382302A1, “Anticancer polyheterocyclic compounds and associated methods” (University of Denver, priority 2024, published 2025)

Legend:
[1] = tested on: MDA-MB-468; assay: NCI five-dose testing, MDA-MB-468
[2] = tested on: UO-31; details: Renal Cancer
[3] = tested on: OVCAR-8; assay: cells; details: Homo sapiens
[4] = tested on: OVCAR-3; assay: NCI five-dose testing, OVCAR-3
[5] = tested on: T-47D; assay: NCI five-dose testing, T-47D
[6] = tested on: NCI-H522; assay: NCI five-dose testing, NCI-H522
[7] = tested on: MOLT-4; assay: NCI five-dose testing, MOLT-4
[8] = tested on: OVCAR-4; assay: NCI five-dose testing, OVCAR-4
[9] = tested on: NCI-H23; details: Non-Small Cell Lung Cancer
[10] = tested on: ACHN; assay: cells; details: Homo sapiens
[11] = tested on: RPMI-8226; assay: NCI five-dose testing, RPMI-8226
[12] = tested on: OVCAR-8; details: Ovarian Cancer
[13] = tested on: SNB-75; details: CNS Cancer
[14] = tested on: CCRF-CEM; assay: NCI five-dose testing, CCRF-CEM
[15] = tested on: ACHN; details: Renal Cancer
[16] = tested on: NCI-H23; assay: cells; details: Homo sapiens
[17] = tested on: SNB-75; assay: cells; details: Homo sapiens
[18] = tested on: UACC-62; assay: cells; details: Homo sapiens
[19] = tested on: KM12; assay: cells; details: Homo sapiens
[20] = tested on: UACC-62; details: Melanoma
[21] = tested on: MCF7; assay: NCI five-dose testing, MCF7
[22] = tested on: UO-31; assay: cells; details: Homo sapiens
[23] = tested on: HL-60(TB); assay: NCI five-dose testing, HL-60(TB)
[24] = tested on: KM12; details: Colon Cancer

C=CCN(C(=O)C(=O)NC1=CC(=O)c2ccccc2C1=O)c1c(OC)cccc1OC
TGI ([1]; Breast Cancer, MDA-MB-468): 8.97 × 10^−7 | GI50 ([1]; Homo sapiens, MDA-MB-468): 0.275 µM | CC50 ([1]; Homo sapiens, MDA-MB-468, read-out: LC50): 3 µM | TGI [2]: 2.76 × 10^−6 | GI50 ([3]; OVCAR-8): 1.36 µM | CC50 ([3]; OVCAR-8, read-out: LC50): 5.36 µM | GI50 ([4]; Homo sapiens, OVCAR-3): 1.03 µM | CC50 ([4]; Homo sapiens, OVCAR-3, read-out: LC50): 4.73 µM | TGI ([4]; Ovarian Cancer, OVCAR-3): 2.21 × 10^−6 | TGI ([5]; Breast Cancer, T-47D): 2.81 × 10^−6 | GI50 ([5]; Homo sapiens, T47D): 1.48 µM | CC50 ([5]; Homo sapiens, T47D, read-out: LC50): 5.33 µM | GI50 ([6]; Homo sapiens, NCI-H522): 1.25 µM | CC50 ([6]; Homo sapiens, NCI-H522, read-out: LC50): 5.03 µM | TGI ([6]; Non-Small Cell Lung Cancer, NCI-H522): 2.51 × 10^−6 | GI50 ([7]; Homo sapiens, MOLT-4): 0.441 µM | CC50 ([7]; Homo sapiens, MOLT-4, read-out: LC50): 4.04 µM | TGI ([7]; Leukemia, MOLT-4): 1.62 × 10^−6 | GI50 ([8]; Homo sapiens, OVCAR-4): 1.22 µM | CC50 ([8]; Homo sapiens, OVCAR-4, read-out: LC50): 4.98 µM | TGI ([8]; Ovarian Cancer, OVCAR-4): 2.46 × 10^−6 | TGI [9]: 2.79 × 10^−6 | GI50 [10]: 1.35 µM | CC50 ([10]; read-out: LC50): 5.21 µM | GI50 ([11]; Homo sapiens, RPMI-8226): 1.04 µM | CC50 ([11]; Homo sapiens, RPMI-8226, read-out: LC50): 4.74 µM | TGI ([11]; Leukemia, RPMI-8226): 2.22 × 10^−6 | TGI [12]: 2.70 × 10^−6 | TGI [13]: 2.93 × 10^−6 | GI50 ([14]; Homo sapiens): 0.781 µM | CC50 ([14]; Homo sapiens, read-out: LC50): 4.55 µM | TGI ([14]; Leukemia): 2.04 × 10^−6 | TGI [15]: 2.66 × 10^−6 | GI50 ([16]; NCI-H23): 1.44 µM | CC50 ([16]; NCI-H23, read-out: LC50): 5.39 µM | GI50 ([17]; SNB-75): 1.43 µM | CC50 ([17]; SNB-75, read-out: LC50): 5.99 µM | GI50 ([18]; UACC-62): 1.48 µM | CC50 ([18]; UACC-62, read-out: LC50): 5.35 µM | GI50 ([19]; KM12): 0.626 µM | CC50 ([19]; KM12, read-out: LC50): 6.39 µM | TGI [20]: 2.81 × 10^−6 | TGI ([21]; Breast Cancer, MCF7): 2.78 × 10^−6 | GI50 ([21]; Homo sapiens, MCF7): 1.45 µM | CC50 ([21]; Homo sapiens, MCF7, read-out: LC50): 5.32 µM | GI50 ([22]; UO-31): 1.44 µM | CC50 ([22]; UO-31, read-out: LC50): 5.31 µM | GI50 ([23]; Homo sapiens, HL-60): 0.249 µM | CC50 ([23]; Homo sapiens, HL-60, read-out: LC50): 1.52 µM | TGI ([23]; Leukemia, HL-60(TB)): 5.42 × 10^−7 | TGI [24]: 2.28 × 10^−6
